≈ marks a conversion by molar mass, not a printed value. Where “and” joins values, the source holds several entries; their conditions need not be identical. Equal entries are not always repeated. Where two headings read alike, the source gives them in different places.
Assays:
[1] = High throughput solubility; format: physicochemical; conditions: for solubility at 24 h: aqueous buffer, kinetic from dmso stock, n = 1
Experimental: The aqueous solubility of the test compound is determined by comparing the amount dissolved in buffer to the amount in an acetonitrile/water (1/1) solution. Starting from a 10 mM DMSO stock solution aliquots are diluted with acetonitrile/water (1/1) or buffer resp. After 24h of shaking, the solutions are filtrated and analyzed by LC-UV. The amount dissolved in buffer is compared to the amount in the acetonitrile solution. Solubility will usually be measured from 0.001 to 0.125 mg/ml at a DMSO concentration of 2.5%. The solubility at the different pH values for BI-0115 were measured with n = 1.

[2] = Metabolic stability in rat liver microsomes; format: in vitro ADME; conditions: in vitro clearance as % hepatic blood flow, n = 1
Experimental: The metabolic degradation of the test compound is assayed at 37 °C with microsomes. The final incubation volume of 100 µl per time point contains TRIS buffer pH 7.6 at RT (0.1 M), magnesium chloride (5 mM), microsomal protein (1 mg/ml or 0.5 mg/ml depending on species) and the test compound at a final concentration of 1 µM.
Following a short preincubation period at 37 °C, the reactions were initiated by addition of beta-nicotinamide adenine dinucleotide phosphate, reduced form (NADPH, 1 mM) and terminated by transfering an aliquot into solvent after different time points. The quenched incubations are pelleted by centrifugation (10000 g, 5 min). An aliquot of the supernatant is assayed by LC-MS/MS for the amount of parent compound. The slope of the semi logarithmic plot of the concentration-time profile determines the half-life. The clearance is calculated by upscaling considering the amount of protein in the incubation, microsomal recovery and liver weight and normalized to the hepatic blood flow of the respective species. The number of experiments for BI-0115 is n = 1.

hERG channel = target: T1, hERG channel (Homo sapiens, UniProt Q12809); test: hERG patch-clamp in HEK293 cells; format: cell-based
T1 construct: expressed in transfected cells; host or cells: HEK293
Experimental: hERG-mediated membrane currents are recorded in HEK (human embryonic kidney) 293 cells stably transfected with hERG cDNA, using the whole-cell configuration of the patch-clamp technique as previously described. The number of experiments for BI-0115 is n = 1.

human LOX-1 receptor = target: T2, human LOX-1 receptor (Homo sapiens, UniProt P78380); test: LOX-1 cellular oxLDL uptake assay (AF594-oxLDL, CHO-Trex-hLOX1); format: cell-based
T2 construct: the cellular HTS screen was done using full-length LOX-1 and human oxLDL; expressed in transfected cells; host or cells: CHO-K1 T-REx (CHO-Trex-hLOX1 clone), vector pT-Rex-EXP-30-hLOX
Source text: To identify small molecule inhibitors of LOX-1 mediated oxLDL uptake we developed a cellular high throughput screening (HTS) assay. Small molecule compounds were screened for their ability to block the uptake of AlexaFluor594 (AF594)-labeled human oxLDL into a CHO-K1 cell line with inducible expression of the human LOX-1 receptor. This readout was visualized and images were quantified by fluorescence microscopy (Fig. 1a). As positive controls, cells without induction of LOX-1 as well as a blocking anti-LOX-1 antibody[29] was used (Fig. 1b). More than one million different compounds were screened. Lead-like compounds (molecular weight above 270 Da) were tested at a concentration of 5 µg/ml, whereas a fragment subset (molecular weight below 270 Da) was tested at a tenfold higher concentration to ensure detection of more weakly active but ligand-efficient fragment-like compounds. Employing a hit criterion of lower than 50% of control, a hit rate of 2.8% was observed (Supplementary Fig. 1). These hits were further confirmed by performing two independent assay runs with fresh compound samples, resulting in a confirmation rate of 80% and a confirmed hit rate of 2.2% (Supplementary Fig. 2). To filter out unspecific or false-positive hits, a counter screen was developed and applied for testing the primary hits[30]–[32]. The assay format was identical to the primary assay besides employing a CHO cell line with inducible expression of human HDL scavenger receptor class B type I (SR-BI), an alternative scavenger receptor with low sequence and structural homology to human LOX-1 (Supplementary Fig. 1). Human SR-B1 is a cell surface glycoprotein most highly expressed in liver and steroidogenic tissues and plays a key role in mediating selective HDL cholesterol (HDL-C) uptake in the liver. Its regulation of HDL-C metabolism is believed to be relevant for cardiovascular health and the receptor was therefore chosen as a counter target. Using this single assay, we eliminated compounds that blocked both receptors presumably via an unspecific, non-target related mechanism (Supplementary Fig. 3).
A recombinant CHO-K1 cell line was generated to stably express human LOX-1 under control of a Tetracycline inducible promoter: using Gateway® Cloning (Invitrogen), the hLOX-1 cDNA was cloned into pT-Rex-DEST-30 thus generating pT-Rex-EXP-30-hLOX. The CHO-K1 T-REx host cell line was then transfected with the expression vector pT-Rex-EXP-30-hLOX. Stably transfected cells were selected by Geneticin resistance. Single cell clones expressing human LOX-1 upon induction with Doxycycline were isolated and the best clone selected by qRT-PCR and FACS analysis (CHO-Trex-hLOX1 cell clone). Cells expressing human SR-BI were prepared and used for the assay in a similar fashion (CHO-Trex-hSR-B1 cell line). […]

T1 sequence (Q12809 whole entry): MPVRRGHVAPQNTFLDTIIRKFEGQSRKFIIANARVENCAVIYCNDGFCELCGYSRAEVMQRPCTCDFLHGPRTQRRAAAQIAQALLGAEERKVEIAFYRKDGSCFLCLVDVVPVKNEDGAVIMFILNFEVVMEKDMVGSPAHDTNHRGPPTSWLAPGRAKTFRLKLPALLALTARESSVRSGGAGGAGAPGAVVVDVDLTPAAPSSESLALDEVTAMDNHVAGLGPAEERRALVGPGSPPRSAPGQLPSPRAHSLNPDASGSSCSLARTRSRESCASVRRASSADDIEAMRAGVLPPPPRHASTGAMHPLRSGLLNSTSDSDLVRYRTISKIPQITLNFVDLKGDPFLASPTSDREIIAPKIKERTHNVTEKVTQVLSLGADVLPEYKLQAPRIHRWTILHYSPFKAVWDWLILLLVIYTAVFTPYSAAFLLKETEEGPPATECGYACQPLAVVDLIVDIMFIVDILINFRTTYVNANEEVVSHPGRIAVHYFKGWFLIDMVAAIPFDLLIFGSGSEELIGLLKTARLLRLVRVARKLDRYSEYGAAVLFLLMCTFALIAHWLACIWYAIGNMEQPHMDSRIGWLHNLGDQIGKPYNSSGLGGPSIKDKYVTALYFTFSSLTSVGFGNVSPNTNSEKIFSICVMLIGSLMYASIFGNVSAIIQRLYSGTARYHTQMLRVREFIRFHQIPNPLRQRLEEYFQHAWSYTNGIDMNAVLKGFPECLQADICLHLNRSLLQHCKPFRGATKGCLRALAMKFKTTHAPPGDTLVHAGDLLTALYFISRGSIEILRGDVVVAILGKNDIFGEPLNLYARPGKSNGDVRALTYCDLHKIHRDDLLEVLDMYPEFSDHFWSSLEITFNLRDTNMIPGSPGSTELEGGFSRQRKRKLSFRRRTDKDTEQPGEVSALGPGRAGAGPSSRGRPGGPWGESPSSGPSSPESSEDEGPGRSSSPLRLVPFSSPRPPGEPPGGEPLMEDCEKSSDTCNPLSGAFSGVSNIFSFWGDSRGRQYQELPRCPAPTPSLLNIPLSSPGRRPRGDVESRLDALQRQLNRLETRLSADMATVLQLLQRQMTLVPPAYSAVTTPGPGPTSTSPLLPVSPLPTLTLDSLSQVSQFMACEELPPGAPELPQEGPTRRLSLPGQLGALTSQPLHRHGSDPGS

solubility at 24 h ([1]; pH 4, aqueous buffer, pH4, read-out: Solubility pH4): 1 µg/mL (≈ 3.48 µM)
solubility at 24 h ([1]; pH 7, aqueous buffer, pH7, read-out: Solubility pH7): 1 µg/mL (≈ 3.48 µM)
compound solubility ([1]; in words): low
micr. Stab rLM [2]: 95 %QH
IC50 (human LOX-1 receptor; eight independent measurements 1-8, Supplementary Table 1, read-out: IC50 on LOX-1, individual measurements): 7.55 µM and 7.15 µM and 3.34 µM and 2.01 µM and 5.85 µM and 6.95 µM and 5.11 µM and 4.97 µM
extent of inhibition of oxLDL uptake in the cellular context (human LOX-1 receptor; in words, reply to reviewers): full inhibition
IC50 (human LOX-1 receptor; mean, BI-0115 n = 8, BI-1580 n = 2, inhibition of AF594-oxLDL internalization, read-out: LOX-1 IC50): 5.37 µM and 5.4 µM
IC50 (human LOX-1 receptor; single curve of Fig. 1c, n = 2 per concentration, R^2 = 0.98, read-out: IC50, representative concentration response curve): 7.2 µM
Structure (SMILES): CCCN1C(=O)c2ccc(Cl)cc2Nc2ncccc21 [BI-0115]
inhibition of the hERG channel (hERG channel; in words): no inhibition
IC50 (hERG channel; whole-cell patch-clamp, n = 1): > 10 µM

— article PMC9814544 (Communications Chemistry, 2020)
